The values below come from US20250353855A1, “HETEROCYCLIC AND HETEROARYL COMPOUNDS FOR TREATING HUNTINGTON'S DISEASE” (PTC THERAPEUTICS, INC., priority 2022, published 2025).

One assay has as its system Endogenous Huntingtin Protein. The experiment in a line: Endogenous Huntingtin Protein Assay (ELISA-based MSD electrochemiluminescence). In kind it is cell-based. The note with it: MSD plates coated with MW1 (expanded polyglutamine) or MAB2166 capture antibody; lysates. As for the experimental part:
Compounds of Formula (T) were tested using the Meso Scale Discovery (MSD) Assay provided in International Application No. PCT/US2016/066042, filed on Dec. 11, 2016 and claiming priority to U.S. Provisional Application 62/265,652 filed on Dec. 10, 2015, the entire contents of which are incorporated herein by reference.
The Endogenous Huntingtin Protein assay used in Example 1 was developed using the ELISA-based MSD electrochemiluminescence assay platform.
Meso Scale Discovery (MSD) 96-well or 384-well plates were coated overnight at 4° C. with MW1 (expanded polyglutamine) or MAB2166 monoclonal antibody (for capture) at a concentration of 1 μg/mL in PBS (30 μL per well). Plates were then washed three times with 300 μL wash buffer (0.05% Tween-20 in PBS) and blocked (100 μL blocking buffer; 5% BSA in PBS) for 4-5 hours at room temperature with rotational shaking and then washed three times with wash buffer.
Samples (25 μL) were transferred to the antibody-coated MSD plate and incubated overnight at 4° C. After removal of the lysates, the plate was washed three times with wash buffer, and 25 μL of #5656S (Cell signaling; rabbit monoclonal) secondary antibody (diluted to 0.25 μg/mL in 0.05% Tween-20 in blocking buffer) was added to each well and incubated with shaking for 1 Hour at room temperature. Following incubation with the secondary antibody, the wells were rinsed with wash buffer after which 25 μL of goat anti-rabbit SULFO TAG secondary detection antibody (required aspect of the MSD system) (diluted to 0.25 μg/mL in 0.05% Tween-20 in blocking buffer) was added to each well and incubated with shaking for 1 hour at room temperature. After rinsing three times with wash buffer, 150 μL of read buffer T with surfactant (MSD) were added to each empty well, and the plate was imaged on a SI 6000 imager (MSD) according to manufacturers' instructions provided for 96- or 384-well plates.
A general note: An ELISA detects its analyte on a solid surface through an enzyme-linked reagent.
In the case of `Cc1nc2cc(O)c(-c3cc4ccn([C@@H]5CCNC(C)(C)[C@@H]5F)c4nn3)cc2s1` [Cpd 19, 6-{7-[(3R,4R)-3-fluoro-2,2-dimethylpiperidin-4-yl]-7H-pyrrolo[2,3-c]pyridazin-3-yl}-2-methyl-1,3-benzothiazol-5-ol], the IC50 (as a rule, the concentration needed to halve the response being measured) is below 100 nM. The compound `COc1nc2cc(O)c(-c3cc4ccn([C@H]5CC(C)(C)NC(C)(C)[C@H]5F)c4nn3)cc2o1` [Cpd 25, 6-{7-[(3S,4S)-3-fluoro-2,2,6,6-tetramethylpiperidin-4-yl]-7H-pyrrolo[2,3-c]pyridazin-3-yl}-2-methoxy-1,3-benzoxazol-5-ol] gave a concentration for half-maximal inhibition (IC50) below 100 nM.

The assay is the same for the next values; noted with them: MSD plates coated with MW1 (expanded polyglutamine) or MAB2166 capture antibody; lysates; read-out: IC50.
Turning to `Cc1nc2cc(O)c(-c3cc4c(nn3)N([C@@H]3CC(C)(C)NC5(CC5)C3)CC4)cc2o1` [Cpd 95, 6-{7-[(7R)-5,5-dimethyl-4-azaspiro[2.5]octan-7-yl]-6,7-dihydro-5H-pyrrolo[2,3-c]pyridazin-3-yl}-2-methyl-1,3-benzoxazol-5-ol], the half-maximal inhibitory concentration (IC50) is below 100 nM.

As to `CC1(C)C[C@H](N2CCc3cc(-c4cc5nsnc5cc4O)nnc32)[C@H](F)C(C)(C)N1` [Cpd 85, 6-{7-[(3S,4S)-3-fluoro-2,2,6,6-tetramethylpiperidin-4-yl]-6,7-dihydro-5H-pyrrolo[2,3-c]pyridazin-3-yl}-2,1,3-benzothiadiazol-5-ol], the IC50 is below 100 nM.

As to `CCc1nc2cc(-c3cc4ccn([C@H]5CC(C)(C)NC(C)(C)[C@H]5F)c4nn3)c(O)cc2o1` [Cpd 13, 2-ethyl-5-{7-[(3S,4S)-3-fluoro-2,2,6,6-tetramethylpiperidin-4-yl]-7H-pyrrolo[2,3-c]pyridazin-3-yl}-1,3-benzoxazol-6-ol], the IC50 is below 100 nM. The same measure, in the same setting: for `Cn1nnc2cc(O)c(-c3cc4c(nn3)N([C@H]3CC(C)(C)NC(C)(C)[C@H]3F)CC4)cc21` [Cpd 92, 6-{7-[(3S,4S)-3-fluoro-2,2,6,6-tetramethylpiperidin-4-yl]-6,7-dihydro-5H-pyrrolo[2,3-c]pyridazin-3-yl}-1-methyl-1H-benzotriazol-5-ol] the value was below 100 nM; for `CC1(C)C[C@H](N2CCc3cc(-c4cc5cnccc5cc4O)nnc32)[C@H](F)C(C)(C)N1` [Cpd 54, 7-{7-[(3S,4S)-3-fluoro-2,2,6,6-tetramethylpiperidin-4-yl]-6,7-dihydro-5H-pyrrolo[2,3-c]pyridazin-3-yl}isoquinolin-6-ol], below 100 nM; for `Cc1ccc2cc(O)c(-c3cc4ccn([C@H]5CC(C)(C)NC(C)(C)[C@H]5F)c4nn3)cc2n1` [Cpd 31, 7-{7-[(3S,4S)-3-fluoro-2,2,6,6-tetramethylpiperidin-4-yl]-7H-pyrrolo[2,3-c]pyridazin-3-yl}-2-methylquinolin-6-ol], below 100 nM. The same measure, in the same setting: in the case of `CC1(C)C[C@H](n2ccc3cc(-c4cc5ncc(F)cc5cc4O)nnc32)[C@H](F)C(C)(C)N1` [Cpd 40, 3-fluoro-7-{7-[(3S,4S)-3-fluoro-2,2,6,6-tetramethylpiperidin-4-yl]-7H-pyrrolo[2,3-c]pyridazin-3-yl}quinolin-6-ol] it was below 100 nM; in that of `Cc1nc2cc(-c3cc4c(nn3)N(C3CCNC5(CCC5)[C@@H]3F)CC4)c(O)cc2s1` (single isomer, unassigned) [Cpd 74, 5-{7-[(8R,9R)-9-fluoro-5-azaspiro[3.5]nonan-8-yl]-6,7-dihydro-5H-pyrrolo[2,3-c]pyridazin-3-yl}-2-methyl-1,3-benzothiazol-6-ol or 5-{7-[(8S,9S)-9-fluoro-5-azaspiro[3.5]nonan-8-yl]-6,7-dihydro-5H-pyrrolo[2,3-c]pyridazin-3-yl}-2-methyl-1,3-benzothiazol-6-ol], below 100 nM. Take `Cc1nc2cc(O)c(-c3cc4ncn([C@H]5C[C@@H]6CC[C@@H](N6)[C@H]5F)c4nn3)cc2s1` (single isomer, unassigned) [Cpd 9, 6-{7-[(1R,2R,3S,5S)-2-fluoro-8-azabicyclo[3.2.1]octan-3-yl]-7H-imidazo[4,5-c]pyridazin-3-yl}-2-methyl-1,3-benzothiazol-5-ol or 6-{7-[(1S,2S,3R,5R)-2-fluoro-8-azabicyclo[3.2.1]octan-3-yl]-7H-imidazo[4,5-c]pyridazin-3-yl}-2-methyl-1,3-benzothiazol-5-ol]: the IC50 is below 100 nM. On the same count and under the same terms, in the case of `Cc1nc2cc(-c3cc4c(nn3)N([C@H]3CC(C)(C)NC(C)(C)[C@H]3F)CC4)c(O)cc2n1C` [Cpd 48, 5-{7-[(3S,4S)-3-fluoro-2,2,6,6-tetramethylpiperidin-4-yl]-6,7-dihydro-5H-pyrrolo[2,3-c]pyridazin-3-yl}-1,2-dimethyl-1H-benzimidazol-6-ol] it was below 100 nM.

Take `CC1(C)C[C@H](N2CCc3cc(-c4cc5occc(=O)c5cc4O)nnc32)[C@H](F)C(C)(C)N1` [Cpd 82, 7-{7-[(3S,4S)-3-fluoro-2,2,6,6-tetramethylpiperidin-4-yl]-6,7-dihydro-5H-pyrrolo[2,3-c]pyridazin-3-yl}-6-hydroxy-4H-1-benzopyran-4-one]: the half-inhibitory concentration (IC50) is below 100 nM. Regarding `Cc1nc2cc(O)c(-c3cc4ccn([C@@H]5C[C@H]6CC[C@H](N6)[C@@H]5F)c4nn3)cc2s1` (single isomer, unassigned) [Cpd 22, 6-{7-[(1S,2S,3R,5R)-2-fluoro-8-azabicyclo[3.2.1]octan-3-yl]-7H-pyrrolo[2,3-c]pyridazin-3-yl}-2-methyl-1,3-benzothiazol-5-ol or 6-{7-[(1R,2R,3S,5S)-2-fluoro-8-azabicyclo[3.2.1]octan-3-yl]-7H-pyrrolo[2,3-c]pyridazin-3-yl}-2-methyl-1,3-benzothiazol-5-ol], the IC50 was below 100 nM. Regarding `Cn1nnc2cc(-c3cc4c(nn3)N([C@H]3CC(C)(C)NC(C)(C)[C@H]3F)CC4)c(O)cc21` [Cpd 50, 5-{7-[(3S,4S)-3-fluoro-2,2,6,6-tetramethylpiperidin-4-yl]-6,7-dihydro-5H-pyrrolo[2,3-c]pyridazin-3-yl}-1-methyl-1H-benzotriazol-6-ol], the IC50 is below 100 nM. With `Cc1ccc2cc(-c3cc4c(nn3)N([C@H]3CC(C)(C)NC(C)(C)[C@H]3F)CC4)c(O)cc2n1` [Cpd 76, 6-{7-[(3S,4S)-3-fluoro-2,2,6,6-tetramethylpiperidin-4-yl]-6,7-dihydro-5H-pyrrolo[2,3-c]pyridazin-3-yl}-2-methylquinolin-7-ol], the IC50 was below 100 nM. Still for that read-out and setting: for `Cc1cnc2cc(-c3cc4c(nn3)N([C@@H]3C[C@H]5CC[C@H](N5)[C@@H]3F)CC4)c(O)cc2n1` (single isomer, unassigned) [Cpd 91, 7-{7-[(1S,2S,3R,5R)-2-fluoro-8-azabicyclo[3.2.1]octan-3-yl]-6,7-dihydro-5H-pyrrolo[2,3-c]pyridazin-3-yl}-3-methylquinoxalin-6-ol or 7-{7-[(1R,2R,3S,5S)-2-fluoro-8-azabicyclo[3.2.1]octan-3-yl]-6,7-dihydro-5H-pyrrolo[2,3-c]pyridazin-3-yl}-3-methylquinoxalin-6-ol] the value was below 100 nM; for `Cn1nc2cc(O)c(-c3cc4c(nn3)N([C@H]3CC(C)(C)NC(C)(C)[C@H]3F)CC4)cc2n1` [Cpd 88, 6-{7-[(3S,4S)-3-fluoro-2,2,6,6-tetramethylpiperidin-4-yl]-6,7-dihydro-5H-pyrrolo[2,3-c]pyridazin-3-yl}-2-methyl-2H-benzotriazol-5-ol], below 100 nM. Still for that read-out and setting: in the case of `CC1(C)C[C@H](N2CCc3cc(-c4cc5ccncc5cc4O)nnc32)[C@H](F)C(C)(C)N1` [Cpd 70, 6-{7-[(3S,4S)-3-fluoro-2,2,6,6-tetramethylpiperidin-4-yl]-6,7-dihydro-5H-pyrrolo[2,3-c]pyridazin-3-yl}isoquinolin-7-ol] it was below 100 nM; in that of `O=C1CCc2cc(-c3cc4c(nn3)N([C@H]3CCNC5(CC5)C3)CC4)c(O)cc21` [Cpd 57, 5-{7-[(7S)-4-azaspiro[2.5]octan-7-yl]-6,7-dihydro-5H-pyrrolo[2,3-c]pyridazin-3-yl}-6-hydroxy-2,3-dihydro-1H-inden-1-one], 100 to 500 nM; in that of `CO/N=C1/CCc2cc(-c3cc4c(nn3)N([C@H]3CCNC5(CC5)C3)CC4)c(O)cc21` [Cpd 60, (3Z)-6-{7-[(7S)-4-azaspiro[2.5]octan-7-yl]-6,7-dihydro-5H-pyrrolo[2,3-c]pyridazin-3-yl}-3-(methoxyimino)-2,3-dihydro-1H-inden-5-ol], 500 to 1000 nM.

On to `Cn1nnc2cc(-c3cc4nnn(C5CC(C)(C)NC6(CC6)C5)c4nn3)c(O)cc21` (racemic) [Cpd 7, 5-[rac-3-(5,5-dimethyl-4-azaspiro[2.5]octan-7-yl)-3H-[1,2,3]triazolo[4,5-c]pyridazin-6-yl]-1-methyl-1H-benzotriazol-6-ol], for which the IC50 was in the range of 500 to 1000 nM. Same read-out and setting: in the case of `CC1(C)C[C@H](N2CCc3cc(-c4cc5nccnc5cc4O)nnc32)[C@H](F)C(C)(C)N1` [Cpd 45, 7-{7-[(3S,4S)-3-fluoro-2,2,6,6-tetramethylpiperidin-4-yl]-6,7-dihydro-5H-pyrrolo[2,3-c]pyridazin-3-yl}quinoxalin-6-ol] it was below 100 nM.
